From PubChem BioAssay AID652028 (The Scripps Research Institute Molecular Screening Center, 2013)
Active and inactive are the calls of the source.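 How the source made its calls: active means fold change under 0.5 at 10 µM in a cell reporter of NFkB inflammatory signaling; inactive means the rest.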

system: HEK NFkB luciferase reporter, IL-6 stimulated, luminescence; assay: NFkB signaling inhibitors, luciferase reporter, late-stage follow-up, counter-screen for STAT5 inhibitor project, HEK cells, luminescence, IL-6 stimulus, powder samples (AID 652028); conditions: at 10 µM; stronger effect = lower value

Structure (SMILES) | fold change
CCOC(=O)C1CCCN(CC(=O)/C=C2/N(C)c3ccccc3C2(C)C)C1 (stereo unspecified) | 0.99 (inactive)
CN1/C(=C\C(=O)Cn2nnc(-c3ccccc3)n2)C(C)(C)c2ccccc21 | 0.871 (inactive)
CN1/C(=C\C(=O)C[n+]2ccccc2)C(C)(C)c2ccccc21 | 0.819 (inactive)
CN1/C(=C\C(=O)CN2CCc3ccccc3C2)C(C)(C)c2ccccc21 | 0.879 (inactive)
CC(C)(C)C(=O)C[n+]1ccc2ccccc2c1 | 0.915 (inactive)
Cc1cc[n+](CC(=O)/C=C2\N(C)c3ccccc3C2(C)C)c(C)c1 | 0.848 (inactive)
O=C(C[n+]1ccc2ccccc2c1)Nc1ccccc1 | 0.947 (inactive)
CN1/C(=C\C(=O)CN2C(=O)C3CC=CCC3C2=O)C(C)(C)c2ccccc21 (stereo unspecified) | 0.828 (inactive)
O=C(C[n+]1ccc2ccccc2c1)c1ccccc1 | 0.911 (inactive)
O=C(C[n+]1ccc2ccccc2c1)c1ccc2ccccc2c1 | 3.27 (inactive)
O=C(C[n+]1ccc2ccccc2c1)c1cc2ccccc2oc1=O | 0.218
